Assay results as given in patent US8822471B2, “Compounds, pharmaceutical compositions and uses thereof” (Boehringer Ingelheim International GmbH, priority 2011, dated 2014).

Target: T1, mutant form of the human GPR119 receptor (Homo sapiens, UniProt Q8TDV5, S329A/T327A)
T1 construct: T327 & S329 changed to alanines; expressed in transfected cells
T1 sequence (Q8TDV5 2-335 T327A/S329A): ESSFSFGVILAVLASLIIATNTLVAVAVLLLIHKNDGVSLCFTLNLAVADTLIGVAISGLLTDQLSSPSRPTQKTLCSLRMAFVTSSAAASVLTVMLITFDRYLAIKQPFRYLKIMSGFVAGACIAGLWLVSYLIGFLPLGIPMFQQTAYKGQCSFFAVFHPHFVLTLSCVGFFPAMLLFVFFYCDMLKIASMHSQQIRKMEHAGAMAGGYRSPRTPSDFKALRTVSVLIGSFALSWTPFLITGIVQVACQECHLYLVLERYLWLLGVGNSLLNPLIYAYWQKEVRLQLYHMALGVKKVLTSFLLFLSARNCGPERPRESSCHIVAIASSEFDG
Experiment: LANCE cAMP-384 assay in HEK293 cells stably expressing a mutant form of the human GPR119 receptor
Type: cell-based
Conditions: HEK293 cells stably expressing mutant human GPR119, LANCE cAMP-384 Kit, 20 min at 37° C.
Procedure: Quantitative detection of cAMP accumulation from cells expressing human GPR119 receptor is achieved using Perkin Elmer's LANCE cAMP-384 Kit (Cat#AD0264) according to the manufacturer's protocol. Briefly, HEK293 cells stably expressing a mutant form of the human GPR119 receptor as assay tool (Methionine 1 replaced with the amino acid sequence […], and T327 & S329 changed to alanines; SEQ ID No. 1) are grown to 50-70% confluency in cell culture media (DMEM, 10% heat inactivated Fetal Bovine Serum, 50 I.U./mL penicillin, 50 μg/mL streptomycin, 10 mM HEPES, 20 μg/mL G418 Sulfate). On the day of the assay, GPR119 stable HEK293 cells are lifted from the tissue culture plate and 1000 cells/well are incubated along with various concentrations of test compounds for 20 min at 37° C. Detection Buffer (50 mM HEPES, 10 mM calcium chloride, 0.35% Triton X-100, 1 mg/mL BSA) containing cAMP-specific antibody is then added to all wells and allowed to equilibrate in the dark for 10 minutes at room temperature. Upon equilibration, Detection Buffer containing europium-labeled cAMP tracer complex is added to all wells and allowed to react for 1 hour at room temperature. After 1 hour, bound europium-labeled cAMP tracer is measured using a Perkin Elmer Envision plate reader. The quantity of cAMP generated in each well is derived from a standard curve. EC50 is determined using nonlinear regression analysis of the cAMP values over a range of agonist concentration (12 points spanning the range from 30 μM to 100 pM).

SMILES | EC50 [µM]
O=C(c1ccc(-n2cnnn2)c(F)c1)N(C1CC1)C1CCN(c2ncc(Cl)cn2)CC1 [Example 115, N-[1-(5-Chloro-pyrimidin-2-yl)-piperidin-4-yl]-N-cyclopropyl-3-fluoro-4-tetrazol-1-yl-benzamide] | 0.054
Cc1nnnn1-c1ccc(C(=O)N(C2CC2)C2CCN(c3ncc(Cl)cn3)CC2)cc1F [Example 116, N-[1-(5-Chloro-pyrimidin-2-yl)-piperidin-4-yl]-N-cyclopropyl-3-fluoro-4-(5-methyl-tetrazol-1-yl)-benzamide] | 0.294
O=C(c1ccc(-n2cnnn2)cc1)N(C1CC1)C1CCN(c2ncc(C(F)(F)F)cc2F)CC1 [Example 117, N-Cyclopropyl-N-(3′-fluoro-5′-trifluoromethyl-3,4,5,6-tetrahydro-2H-[1,2′]bipyridinyl-4-yl)-4-tetrazol-1-yl-benzamide] | 0.053
Cc1nnnn1-c1ccc(C(=O)N(C2CC2)C2CCN(c3ncc(C(F)(F)F)cc3F)CC2)cc1 [Example 118, N-Cyclopropyl-N-(3′-fluoro-5′-trifluoromethyl-3,4,5,6-tetrahydro-2H-[1,2′]bipyridinyl-4-yl)-4-(5-methyl-tetrazol-1-yl)-benzamide] | 0.101
Cc1nnnn1-c1ccc(C(=O)N(C2CC2)C2CCN(c3ncc(C(F)(F)F)cc3F)CC2)cc1F [Example 119, N-Cyclopropyl-3-fluoro-N-(3′-fluoro-5′-trifluoromethyl-3,4,5,6-tetrahydro-2H-[1,2]bipyridinyl-4-yl)-4-(5-methyl-tetrazol-1-yl)-benzamide] | 0.117
